Assay results: US20230292743A1, “Method for increasing the lifespan and motility of animal sperm using an inhibitor of Slo3 potassium channel” (IMV TECHNOLOGIES, priority 2017, published 2023)

Tested on: mouse sperm
Assay: Ability of mouse sperm to fertilize oocytes after incubation in capacitation medium (in vitro fertilization, 2-cell embryos)
Format: cell-based
Conditions: 25 μM quinidine in M16-BSA medium, 12 hours incubation, vs control
Method: Mouse sperm was obtained by manual trituration of caudae epididymides from male and were allowed to swim in M2 medium (from Sigma) for 10 minutes. The M2 medium composition in g/L is as follows: CaCl2 0.25; MgSO4 (anhydrous) 0.1649; KCl 0.35635; K2HPO4 0.162; NaHCO3 0.35; NaCl 5.53193; Albumin, Bovine Fraction V 4.0; D-Glucose 1.0; HEPES (for 4-(2-HydroxyEthyl)-1-Piperazine EthaneSulfonic acid)×Na 5.42726; Pyruvic Acid×Na 0.0363; DL-Lactic Acid×Na 2.95). Sperm were then capacitated in M16 medium (from Sigma) with 2% fatty acid-free BSA (for Bovine Serum Albumin) (named “M16-BSA medium”) at 37° C. in a 5% v/v CO2 incubator for different times as specified. M16 medium is a commercial and commonly used medium for in vitro fertilization and culture of preimplantation stage embryos. Oocytes were collected from mature OF1 females, synchronized with 5 units of pregnant mare serum gonadotrophin (PMSG) and 5 units of human chorionic gonadotrophin (HCG). Cumulus were harvested directly from the ampulla and sperm were injected into the M16 droplets containing the cumulus. 1. The first test related to the ability of mouse sperm to fertilize oocytes when incubated prior fertilization in a capacitation medium containing clofilium with regard to a control medium, which is the same capacitation medium but without clofilium. The capacitation medium was M16-BSA medium. The control medium was the M16-BSA medium containing the sperm. It was compared to the same medium further including clofilium at a concentration of 5 μM (in the M16-BSA medium containing the sperm). Sperm was incubated in M16-BSA medium with or without clofilium and then added to M16 droplets containing the cumulus comprising the oocytes. Two-cell embryos were counted at 48 h post insemination (n=3). The number of oocytes reaching the two-cell stage were counted at 48 hours after fertilization. Two different concentrations of clofilium were tested: 0.2 μM of clofilium and 5 μM of clofilium (in the M16-BSA medium containing the sperm). The sperm incubation time prior fertilization was 12 hours. The test related to the ability of mouse sperm to fertilize oocytes, sperm being incubated prior fertilization in a medium containing quinidine with regard to a control medium, without quinidine. The control medium was the M16-BSA medium containing the sperm (“control”). It was compared to the same medium further including quinidine, at various concentrations 5 μM quinidine (“5 μM quinidine”), 10 μM quinidine (“10 μM quinidine”), 25 μM quinidine (“25 μM quinidine”) and 100 μM quinidine (“100 μM quinidine”).

With `C=C[C@H]1CN2CC[C@H]1C[C@@H]2[C@@H](O)c1ccnc2ccc(OC)cc12` [quinidine, (9S)-6′-methoxycinchonan-9-ol] the “percentage of 2-cell embryos vs mature oocytes at 24 h post fertilization (sperm lifespan)” value was “better lifespan than the non-treated”.
